Results reported in paper PMC7469376 (ACS Omega, 2020).

Legend:
SphK1 [1] = molecular target: T1, SphK1 (Homo sapiens, UniProt Q9NYA1); assay: Malachite green-based ATPase enzyme inhibition assay; assay type: biochemical
H1299 cells = assay: MTT cell viability assay, H1299; assay type: cell-based; conditions: Homo sapiens, NCI-H1299, 48 h, read-out: IC50, cell viability (MTT)
[2] = test system: caspase-3 activity in A549 cells; assay: Caspase-3 colorimetric assay, A549; assay type: cell-based, human; conditions: 50 and 100 μM, 24 h, compared to untreated cells
[3] = test system: caspase-3 activity in H1299 cells; assay: Caspase-3 colorimetric assay, H1299; assay type: cell-based, human; conditions: 50 and 100 μM, 24 h, compared to untreated cells
A549 cells = assay: MTT cell viability assay, A549; assay type: cell-based; conditions: Homo sapiens, A549, 48 h, read-out: IC50, cell viability (MTT)
HEK293 = conditions: read-out: IC50 against HEK293; after 72 h of treatment; ref Storch et al. 94; cited from earlier work
SphK1 [4] = molecular target: T1, SphK1; assay: Isothermal titration calorimetry of harmaline with SphK1; assay type: binding

T1 sequence (Q9NYA1 whole entry): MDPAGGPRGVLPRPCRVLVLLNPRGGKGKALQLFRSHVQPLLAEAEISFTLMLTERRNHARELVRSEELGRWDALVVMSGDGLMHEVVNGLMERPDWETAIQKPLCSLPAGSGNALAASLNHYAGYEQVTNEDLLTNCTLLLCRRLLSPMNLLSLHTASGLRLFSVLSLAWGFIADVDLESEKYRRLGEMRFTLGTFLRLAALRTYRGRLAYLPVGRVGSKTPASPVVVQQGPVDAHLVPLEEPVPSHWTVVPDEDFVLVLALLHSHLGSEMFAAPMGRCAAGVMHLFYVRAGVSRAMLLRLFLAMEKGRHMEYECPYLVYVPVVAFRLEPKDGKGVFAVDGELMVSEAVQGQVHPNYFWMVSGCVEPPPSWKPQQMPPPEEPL

COc1ccc2c3c([nH]c2c1)C(C)=NCC3 [harmaline]
IC50 (SphK1 [1]; IC50, SphK1 ATPase activity, harmaline 0 to 30 μM, three independent experiments): 6.13 µM
hill slope of SphK1 inhibition curve (SphK1 [1]; three-parameter Hill fit): 0.57
IC50 (H1299 cells): 48.2 ± 1.76 µM
caspase-3 activity (free pNA liberated per hour) [2]: gradual increase in the caspase-3 activity
caspase-3 activity (free pNA liberated per hour) [3]: gradual increase in the caspase-3 activity
IC50 (A549 cells): 67.9 ± 2.91 µM
IC50 (HEK293): > 200 µM
association constant Ka1 (SphK1 [4]; ITC, site 1): Ka1 = 1.89 × 10^4 ± 1.3 × 10^3 M^–1
enthalpy change ΔH1 (SphK1 [4]; ITC, site 1): ΔH1 = −3205 ± 197 cal/mol
ΔG1 (free energy change) (SphK1 [4]; ITC, site 1): ΔG1 = −5.83 kcal/mol
ΔS1 (SphK1 [4]; ITC, site 1): ΔS1 = 8.82 cal/mol/deg
association constant Ka2 (SphK1 [4]; ITC, site 2): Ka2 = 1.49 × 10^5 ± 8.6 × 10^3 M^–1
enthalpy change ΔH2 (SphK1 [4]; ITC, site 2): ΔH2 = 1895 ± 257 cal/mol
ΔG2 (free energy change) (SphK1 [4]; ITC, site 2): ΔG2 = −7.04 kcal/mol
ΔS2 (SphK1 [4]; ITC, site 2): ΔS2 = 30.0 cal/mol/deg
association constant Ka3 (SphK1 [4]; ITC, site 3): Ka3 = 3.50 × 10^4 ± 2.0 × 10^3 M^–1
enthalpy change ΔH3 (SphK1 [4]; ITC, site 3): ΔH3 = 272.3 ± 190 cal/mol
ΔG3 (free energy change) (SphK1 [4]; ITC, site 3): ΔG3 = −5.99 kcal/mol
ΔS3 (SphK1 [4]; ITC, site 3): ΔS3 = 21.7 cal/mol/deg
association constant Ka4 (SphK1 [4]; ITC, site 4): Ka4 = 4.58 × 10^3 ± 2.9 × 10^2 M^–1
enthalpy change ΔH4 (SphK1 [4]; ITC, site 4): ΔH4 = −9574 ± 467 cal/mol
ΔG4 (free energy change) (SphK1 [4]; ITC, site 4): ΔG4 = −4.98 kcal/mol
ΔS4 (SphK1 [4]; ITC, site 4): ΔS4 = −15.4 cal/mol/deg
Kd (SphK1 [4]; dissociation constant KD1, ITC, site 1): 52.9 µM
Kd (SphK1 [4]; dissociation constant KD2, ITC, site 2): 6.7 µM
Kd (SphK1 [4]; dissociation constant KD3, ITC, site 3): 28.6 µM
Kd (SphK1 [4]; dissociation constant KD4, ITC, site 4): 218 µM
